We go through 21 molecules from article PMC11017246, “Discovery of GLPG2737, a Potent Type 2 Corrector of CFTR for the Treatment of Cystic Fibrosis in Combination with a Potentiator and a Type 1 Co-corrector” (Journal of Medicinal Chemistry, 2024).

The target in data set [1] is T1, ΔF508 CFTR (Homo sapiens, UniProt P13569, DEL508-508).
T1 construct: host or cells: CFBE41o- TetON cells, expression induced with doxycycline
As to the kind of experiment: CSE-HRP: cell surface expression horseradish peroxidase assay in CFBE41o- cells. The following applies: for Emax: CFBE41o-. It counts as cell-based. The procedure: A CFBE41o– cell line stably expressing ΔF508 CFTR harboring an HRP-tag in the fourth extracellular loop was obtained from Professor Gergely Lukacs (Department of Physiology, McGill University, Montreal, QC, Canada).[25] Cells were grown in Eagle’s minimal essential medium (Life Technologies) supplemented with 10% FBS, 1% L-glutamine (Life Technologies), 10 mM HEPES (Life Technologies), 200 μg/mL Geneticin (Life Technologies), and 3 μg/mL puromycin (Sigma) in culture flasks coated with 0.01% bovine serum albumin (BSA) (Sigma), 30 μg/mL Purecol (Nutacon), and 0.001% human fibronectin (Sigma).
CFBE41o– TetON cells expressing HRP tagged ΔF508-CFTR were seeded in white 384-well plates (Greiner) at a density of 2000 cells per well. Medium containing 500 ng/mL doxycycline was used to induce expression of ΔF508-CFTR-HRP. After 3 days, cells were treated with corrector or potentiator compounds and transferred to an incubator at 33 °C. On day 4, cells were washed five times with PBS containing Ca^2+ and Mg^2+ using a Bio-Tek plate washer and incubated with a chemiluminescent HRP substrate (SuperSignal West Pico Chemiluminescent Substrate, Thermo Scientific) for 15 min. Chemiluminescence was measured using an Envision plate reader (PerkinElmer). Dose response data was fitted using a 4 parameter hill function of the form Response = neg control + (pos control – neg control)/(1 + 10^(log EC50-concentration)/HillSlope) to determine EC50 values. Percentage efficacy was calculated using the following formula: (max response – neg control)/(C1 response – neg control).

Data set [2] is described as follows: Plasma protein binding, human. Format: in vitro ADME. Conditions: human, plasma, pH 7.4, human plasma; read-out: PPB % human (converted). The procedure: (§1) Plasma protein binding was determined by equilibrium dialysis using the Pierce Red Device plate with inserts (ThermoScientific). Test compound at 5 μM (0.5% DMSO) spiked in freshly thawed human, rat, mouse, or dog plasma (Bioreclamation INC, Westbury, NY, USA) was dialyzed against phosphate-buffered saline (PBS, pH 7.4) at 37 °C under shaking for 4 h. Aliquots were taken from each side of the well, and matrix matched. Proteins were precipitated with an excess of acetonitrile, samples were mixed and centrifuged, and the supernatant was analyzed by liquid chromatography–mass spectrometry/mass spectrometry (LC–MS/MS). Addition of compound peak areas in the buffer chamber and the plasma chamber was considered to be 100% compound.

Data set [3] in a line: PK rat. It counts as in vivo. Conditions: male, Sprague-Dawley, plasma; for Vd: read-out: Vss. As to the method: These studies were performed with naïve male Sprague–Dawley rats (Janvier France, 6–8 weeks old). Rats were dosed iv via a bolus in the tail vein with a dose level of 0.1 mg/kg or orally as a single esophageal gavage with a dose level of 5 mg/kg. For the iv route, the compound was formulated in PEG200/water (60/40; v/v). For the oral route, the compound was formulated in MC 0.5% (2/98) as a homogeneous suspension. Before the oral dosing, the animals were deprived of food for at least 12 h before compound administration until 3 h after administration. All animals had free access to the tap water. Blood samples were collected under light anesthesia and placed into tubes containing Li-heparin as an anticoagulant. Blood samples were collected up to 24 h after dosing (n = 3 rats per route). After centrifugation, the resulting plasma samples were assayed by LC-MS/MS with a nongood laboratory practice (non-GLP)-validated method. PK parameters were calculated by noncompartmental analysis using WinNonlin software (Certara, Princeton, NJ, USA).

A short description of data set [4]: Plasma protein binding, rat. It counts as in vitro ADME. Conditions: pH 7.4, read-out: PPB % rat (converted). As to the method: as §1
Data set [5] addresses T1, ΔF508 CFTR. As to the kind of experiment: TECC (transepithelial clamp circuit) in primary CF-derived HBE cells. It counts as cell-based. As to the method: Bronchial epithelial cells isolated from the lungs of patients with CF homozygous for the ΔF508 CFTR mutation were obtained from McGill University (Montreal, QC, Canada) or the University of North Carolina (Chapel Hill, NC, United States). Cells were isolated from lungs obtained from donors undergoing planned transplantation. These primary cells were cultured directly on type IV collagen-coated polycarbonate Transwell supports with a diameter of 6.5 mm and pore size of 0.4 μm (Costar, #3397) for 18–25 days in an air–liquid interface, essentially as previously described for TECC.[23]
Twenty-four hours prior to the electrophysiological recording, corrector and/or potentiator compounds were added on both the apical and basolateral sides. TECC recordings were performed by using the TECC instrument developed and sold by EP Design (Bertem, Belgium). During the recording, the epithelial cells were bathed in a NaCl-Ringer solution (120 mM NaCl, 20 mM HEPES, 1.2 mM CaCl2, 1.2 mM MgCl2, 0.8 mM KH2PO4, 0.8 mM K2HPO4, 5 mM glucose, pH 7.4) on both the basolateral (640 μL) and the apical (160 μL) sides and kept at 37 °C. Corrector and potentiator compounds were readded at the same concentration used during the 24 h pretreatment. Apical amiloride was used to inhibit the endogenous ENaC currents (100 μM), while forskolin (10 μM) was applied on both the apical and basolateral sides to stimulate CFTR. Measurements were done during a 20 min time frame with recordings every 2 min. The transepithelial potential and transepithelial resistance were measured in an open circuit and transformed to Ieq using Ohm’s law. The maximal increase in Ieq (ΔIeq, the difference in current before and after forskolin or potentiator treatment) was used as a measure for the increased CFTR activity. EC50 values were generated by measuring the impact of different concentrations of compounds on ΔIeq in primary cells. For this purpose, each transwell was treated with a different compound concentration. CFTRInh-172 was added apically at 10 μM to assess the specificity of the response. Dose response data was fitted using a 3-parameter hill function of the form Response = Bottom + (Top – Bottom)/(1 + (EC50/concentration)) to determine EC50 values. Percentage efficacy was calculated using the following formula: (max response – neg control)/(C1 response – neg control).

The mark [6] stands for this setting: no additional corrector, relative to lumacaftor or 5 (3 μM) positive control, read-out: CSE-HRP % max activation.
The mark [7] stands for this setting: no additional corrector, 24 h incubation, 33 °C, geometric mean, read-out: CSE-HRP EC50.
[8] abbreviates: in the presence of C1 corrector 5, relative to 5 (3 μM) positive control, read-out: CSE-HRP with 5 % max activation.
Where [9] appears, read: in the presence of C1 corrector 5, read-out: CSE-HRP with 5 EC50.

As usually defined, the EC50 is the concentration giving half of the maximal effect.

Where two headings read alike, the source gives them in different places.

T1 sequence (P13569 with tags, fused parts or gaps DEL508-508): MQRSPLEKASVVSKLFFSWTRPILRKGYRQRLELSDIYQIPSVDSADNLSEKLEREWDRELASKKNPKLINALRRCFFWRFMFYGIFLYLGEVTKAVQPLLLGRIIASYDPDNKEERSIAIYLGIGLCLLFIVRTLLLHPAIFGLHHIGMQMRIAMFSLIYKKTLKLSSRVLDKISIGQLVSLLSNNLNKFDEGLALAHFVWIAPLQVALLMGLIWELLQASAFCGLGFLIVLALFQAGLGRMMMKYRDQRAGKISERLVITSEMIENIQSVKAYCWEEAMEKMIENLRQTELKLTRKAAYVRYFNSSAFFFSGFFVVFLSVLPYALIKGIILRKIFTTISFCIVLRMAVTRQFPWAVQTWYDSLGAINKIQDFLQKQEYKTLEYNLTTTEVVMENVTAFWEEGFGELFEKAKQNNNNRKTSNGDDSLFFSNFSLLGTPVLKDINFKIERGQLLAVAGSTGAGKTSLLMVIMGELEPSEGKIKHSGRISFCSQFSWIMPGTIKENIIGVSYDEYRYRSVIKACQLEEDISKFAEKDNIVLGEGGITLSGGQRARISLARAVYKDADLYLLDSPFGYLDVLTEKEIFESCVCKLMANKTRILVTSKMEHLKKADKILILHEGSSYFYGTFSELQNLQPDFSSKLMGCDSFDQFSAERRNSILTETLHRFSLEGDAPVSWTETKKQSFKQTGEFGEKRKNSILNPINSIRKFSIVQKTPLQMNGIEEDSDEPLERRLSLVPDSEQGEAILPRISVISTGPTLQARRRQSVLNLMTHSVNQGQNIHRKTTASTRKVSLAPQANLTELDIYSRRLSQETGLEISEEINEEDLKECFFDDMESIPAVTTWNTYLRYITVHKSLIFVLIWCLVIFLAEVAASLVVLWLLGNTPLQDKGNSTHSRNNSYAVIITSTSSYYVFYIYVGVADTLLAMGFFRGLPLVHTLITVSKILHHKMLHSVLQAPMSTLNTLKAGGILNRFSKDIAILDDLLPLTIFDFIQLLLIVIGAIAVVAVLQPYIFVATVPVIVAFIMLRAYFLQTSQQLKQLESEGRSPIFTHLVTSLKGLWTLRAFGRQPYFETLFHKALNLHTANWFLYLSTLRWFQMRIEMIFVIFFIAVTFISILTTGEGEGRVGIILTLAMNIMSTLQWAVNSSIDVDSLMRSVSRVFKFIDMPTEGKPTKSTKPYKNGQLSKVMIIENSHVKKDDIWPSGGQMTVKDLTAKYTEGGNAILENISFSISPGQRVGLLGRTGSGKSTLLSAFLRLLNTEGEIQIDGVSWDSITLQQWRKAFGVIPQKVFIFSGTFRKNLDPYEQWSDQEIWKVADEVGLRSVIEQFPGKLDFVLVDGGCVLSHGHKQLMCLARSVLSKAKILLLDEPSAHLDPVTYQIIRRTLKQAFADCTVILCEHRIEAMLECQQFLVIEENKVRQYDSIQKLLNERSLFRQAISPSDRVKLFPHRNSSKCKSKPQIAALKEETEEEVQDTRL

Turning to `Cc1nn(C2CCN(C)CC2)c2nc(C(=O)O)cc(-c3ccc(N4CCOCC4)cc3)c12` [Compound 14], in data set [1] (setting [6]), the Emax is -2%. Also, the EC50 in data set [1] (setting [7]) turned out to be 10000 nM.

Turning to `O=C(O)c1cc(-c2ccc(N3CCOCC3)cc2)c2cnn(-c3ccccc3)c2n1` [Compound 15], the Emax in data set [1] (setting [6]) was 116%. The EC50 in data set [1] (setting [7]) was 1270 nM.

With `CC(C)c1nn(-c2ccccc2)c2nc(C(=O)O)cc(-c3ccc(N4CCOCC4)cc3)c12` [Compound 16], the Emax in data set [1] (setting [6]) worked out at 184%. The EC50 in data set [1] (setting [7]) was determined as 448 nM.

Take `O=C(O)c1cc(-c2ccc(N3CCOCC3)cc2)c2c(C3CCC3)nn(-c3ccccc3)c2n1` [Compound 18]: the fraction unbound at 4 h, 5 μM in data set [2] was 0.01. In addition, the clearance in data set [3] (1 mg/kg, iv dosing, read-out: plasma clearance (converted)) was 3.33 mL/min/kg; in data set [3] (iv, 0.1 mg/kg, formula-strings file, unit inferred, read-out: Cl (converted)), 3.33 mL/min/kg. Further, the Vd in data set [3] (iv, 0.1 mg/kg, formula-strings file, unit inferred) came out at 0.474 L/kg; in data set [3] (iv, 1 mg/kg, 1 mg/kg iv), 0.474 L/kg.

For `COCCNc1ccc(-c2cc(C(=O)O)nc3c2c(C)nn3-c2ccccc2)cc1` [Compound 24], the Emax in data set [1] (setting [6]) stood at 175%. Also, the EC50 in data set [1] (setting [7]) was 2120 nM.

As for `COCCN(C)c1ccc(-c2cc(C(=O)O)nc3c2c(C)nn3-c2ccccc2)cc1` [Compound 25], the Emax in data set [1] (setting [6]) was 204%. Also, in data set [1] (setting [7]), the concentration giving a half-maximal response (EC50) turned out to be 1490 nM.

With `CC(=O)c1cc(-c2ccc(N3CCOCC3)cc2)c2c(C)nn(-c3ccccc3)c2n1` [Compound 29], the Emax in data set [1] (setting [6]) is 8.2%. Moreover, the EC50 in data set [1] (setting [7]) was determined as 10000 nM.

Consider `Cc1nn(-c2ccccc2)c2nc(CO)cc(-c3ccc(N4CCOCC4)cc3)c12` [Compound 30], for which the Emax in data set [1] (setting [6]) was 15%. Besides, the EC50 in data set [1] (setting [7]) stood at 10000 nM.

For the molecule `Cc1nn(-c2ccccc2)c2nc(C(C)O)cc(-c3ccc(N4CCOCC4)cc3)c12` (centres unmarked) [Compound 31], the Emax in data set [1] (setting [6]) worked out at 8.8%. Moreover, the EC50 in data set [1] (setting [7]) turned out to be 10000 nM.

Take `Cc1nn(-c2ccccc2)c2nc(C(C)(C)O)cc(-c3ccc(N4CCOCC4)cc3)c12` [Compound 32]: the Emax in data set [1] (setting [6]) was 5%. The EC50 in data set [1] (setting [7]) stood at 10000 nM.

Consider `Cc1nn(-c2ccccc2)c2nc(C(=O)NCC(F)(F)F)cc(-c3ccc(N4CCOCC4)cc3)c12` [Compound 33], for which, in data set [1] (setting [6]), the Emax came to 7%. For the same molecule, the EC50 in data set [1] (setting [7]) worked out at 10000 nM.

As to `COc1cc(-c2cc(-c3ccc(N4CCOCC4)cc3)c3c(C)nn(-c4ccccc4)c3n2)n[nH]1` [Compound 34], in data set [1] (setting [6]), the Emax is 4%. In addition, the EC50 in data set [1] (setting [7]) came to 10000 nM.

With `Cc1nn(-c2ccccc2)c2nc(CC(=O)O)cc(-c3ccc(N4CCOCC4)cc3)c12` [Compound 35], the Emax in data set [1] (setting [6]) amounted to 24%. The EC50 in data set [1] (setting [7]) amounted to 10000 nM.

As for `Cc1nn(-c2ccccc2)c2nc(C(=O)NC#N)cc(-c3ccc(N4CCOCC4)cc3)c12` [Compound 36], the Emax in data set [1] (setting [6]) stood at 96%. The 50% effective concentration (EC50) in data set [1] (setting [7]) worked out at 2980 nM.

On to `CS(=O)(=O)NC(=O)c1cc(-c2ccc(N3CCOCC3)cc2)c2c(C3CCC3)nn(-c3ccccc3)c2n1` [Compound 39], for which, in data set [2], the fraction unbound at 4 h, 5 μM is 0.0005.

For `COCCN(C)c1ccc(-c2cc(C(=O)O)nc3c2c(C2CCC2)nn3-c2ccccc2)cc1` [Compound 40], the Emax came to 325% in data set [1] (setting [8]) and 173% in data set [1] (setting [6]). For the same molecule, the EC50 in data set [1] (setting [9]) amounted to 448 nM; in data set [1] (setting [7]), 542 nM.

Turning to `COCCN(C)c1ccc(-c2cc(C(=O)O)nc3c2c(C2CCC2)nn3-c2ccccc2)cn1` [Compound 42], the Emax in data set [1] (setting [8]) was 417%; in data set [1] (setting [6]) it was 191%. In addition, the EC50 in data set [1] (setting [9]) worked out at 483 nM; in data set [1] (setting [7]), 529 nM.

As for `CS(=O)(=O)NC(=O)c1cc(N2CCCCC2)c2c(C3CCC3)nn(-c3ccccc3)c2n1` [Compound 46], the fraction unbound at 4 h, 5 μM in data set [4] is 0.001; in data set [2], < 0.001.

As for `COC1CCN(c2cc(C(=O)NS(C)(=O)=O)nc3c2c(C2CCC2)nn3-c2ccccc2)CC1` [Compound 47], the fraction unbound at 4 h, 5 μM in data set [4] and in data set [2] was 0.002 throughout.

In the case of `CS(=O)(=O)NC(=O)c1cc(N2CCC(C#N)CC2)c2c(C3CCC3)nn(-c3ccccc3)c2n1` [Compound 48], in data set [5] (primary ΔF508 homozygous HBE cells, 24 h incubation, with GLPG2222, read-out: TECC HBE with GLPG2222 % max activation), the Emax stood at 265%. For the same molecule, the EC50 in data set [5] (primary ΔF508 homozygous HBE cells, 24 h incubation, with GLPG2222, read-out: TECC HBE with GLPG2222 EC50) was 60 nM. Further, the fraction unbound at 4 h, 5 μM in data set [4] and in data set [2] was 0.003 each time.

In the case of `CC1(C)Cc2c(sc(NC(=O)c3ccn[nH]3)c2C(N)=O)C(C)(C)O1` [GLPG1837, reference compound], the fold in data set [5] (no C2 corrector (reference)) is reported as 1 fold. The EC50 in data set [5] (no C2 corrector, C1 corrector GLPG2222 (4) 0.15 μM, read-out: EC50 of potentiator GLPG1837) was 13 nM.
